Measurements reported in patent US8273780B2, “Polycyclic antagonists of lysophosphatidic acid receptors” (Amira Pharmaceuticals, Inc., priority 2009, dated 2012).

Legend:
Assay type in all cases: cell-based
Human LPA3 = target: T1, Human LPA3 (Homo sapiens, UniProt Q9UBY5); assay: LPA3 calcium flux assay; settings: CHO cells expressing human LPA3, 10 nM LPA; read-out: HLPA3 Ca Flux IC50
T1 construct: The full-length cDNA fragment for human LPA3 was obtained by PCR from the vector; expressed in transfected cells; cDNA from the Missouri S&T cDNA Resource Center
T1 sequence (Q9UBY5 1-353): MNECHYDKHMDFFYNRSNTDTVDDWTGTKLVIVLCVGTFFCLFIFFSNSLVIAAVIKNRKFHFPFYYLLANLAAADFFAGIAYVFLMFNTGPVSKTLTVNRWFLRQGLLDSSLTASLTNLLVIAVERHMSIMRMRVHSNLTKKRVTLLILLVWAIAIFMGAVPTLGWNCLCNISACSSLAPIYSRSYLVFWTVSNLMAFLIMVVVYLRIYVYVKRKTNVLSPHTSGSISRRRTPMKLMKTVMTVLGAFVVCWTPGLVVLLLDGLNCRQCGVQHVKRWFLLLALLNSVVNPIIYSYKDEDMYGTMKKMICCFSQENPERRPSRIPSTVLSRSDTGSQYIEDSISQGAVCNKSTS
Method: A vector containing the human LPA3 receptor cDNA was obtained from the Missouri S&T cDNA Resource Center (www.cdna.org). The full-length cDNA fragment for human LPA3 was obtained by PCR from the vector. The nucleotide sequence of the cloned human LPA3 was determined by sequencing and confirmed to be identical to the published human LPA3 sequence (NCBI accession number NM_012152). The cDNA was cloned into the pcDNA5/FRT expression plasmid and transfected in CHO cells using lipofectamine 2000 (Invitrogen Corp., USA). Clones stably expressing human LPA3 were selected using hygromycin and identified as cells that show Ca-influx in response to LPA.
(§1) Human LPA1 or LPA3 expressing CHO cells are seeded at 20,000-45,000 cells per well in a 96-well poly-D-lysine coated plate one or two days before the assay. Prior to the assay, the cells are washed once with PBS and then cultured in serum-free media overnight. On the day of the assay, a calcium indicator dye (Calcium 4, Molecular Devices) in assay buffer (HBSS with Ca^2+and Mg^2+ and containing 20 mM Hepes and 0.3% fatty-acid free human serum albumin) is added to each well and incubation continued for 1 hour at 37° C. 10 μl of test compounds in 2.5% DMSO are added to the cells and incubation continued at room temperature for 30 minutes. Cells are the stimulated by the addition of 10 nM LPA and intracellular Ca^2+ measured using the Flexstation 3 (Molecular Devices). IC50s are determined using Graphpad prism analysis of drug titration curves.

[1] = test system: human A2058 melanoma cells; assay: LPA1 chemotaxis assay; settings: 100 nM LPA, read-out: inhibition of LPA-driven chemotaxis IC50
Method: Chemotaxis of the A2058 human melanoma cells was measured using the Neuroprobe ChemoTx® System plates (8 μM pore size, 5.7 mm diameter sites). The filter sites were coated with 0.001% fibronectin (Sigma) in 20 mM Hepes, pH 7.4 and allowed to dry. A2058 cells were serum-starved for 24 hours, then harvested with Cell Stripper and resuspended in DMEM containing 0.1% fatty-acid-free bovine serum albumin (BSA) to a concentration of 1×10^6/ml. Cells were mixed with an equal volume of test compound (2×) in DMEM containing 0.1% fatty-acid-free BSA and incubated at 37° C. for 15 minutes. LPA (100 nM in DMEM containing 0.1% fatty-acid-free BSA) or vehicle was added to each well of the lower chamber and 50 μl of the cell suspension/test compound mix was applied to the upper portion of the ChemoTx plate. Plates were incubated at 37° C. for three hours and then the cells removed from the upper portion by rinsing with PBS and scraping. The filter was dried then stained with HEMA 3 Staining System (Fisher Scientific). The absorbance of the filter was read at 590 nm and IC50s were determined using Symyx Assay Explorer.

Human LPA1 = target: T2, Human LPA1 (Homo sapiens, UniProt Q92633); assay: LPA1 calcium flux assay; settings: CHO cells expressing human LPA1, 10 nM LPA; read-out: HLPA1 Ca Flux IC50
T2 construct: the full-length cDNA for human LPA1 was obtained by PCR of the reverse transcription reaction; expressed in transfected cells
Method: A 1.1 kb cDNA encoding the human LPA1 receptor was cloned from human lung. Human lung RNA (Clontech Laboratories, Inc. USA) was reverse transcribed using the RETROscript kit (Ambion, Inc.) and the full-length cDNA for human LPA1 was obtained by PCR of the reverse transcription reaction. The nucleotide sequence of the cloned human LPA1 was determined by sequencing and confirmed to be identical to the published human LPA1 sequence (An et al. Biochem. Biophys. Res. Commun. 231:619 (1997). The cDNA was cloned into the pcDNA5/FRT expression plasmid and transfected in CHO cells using lipofectamine 2000 (Invitrogen Corp., USA). Clones stably expressing human LPA1 were selected using hygromycin and identified as cells that show Ca-influx in response to LPA.
as §1

T2 sequence (Q92633 whole entry): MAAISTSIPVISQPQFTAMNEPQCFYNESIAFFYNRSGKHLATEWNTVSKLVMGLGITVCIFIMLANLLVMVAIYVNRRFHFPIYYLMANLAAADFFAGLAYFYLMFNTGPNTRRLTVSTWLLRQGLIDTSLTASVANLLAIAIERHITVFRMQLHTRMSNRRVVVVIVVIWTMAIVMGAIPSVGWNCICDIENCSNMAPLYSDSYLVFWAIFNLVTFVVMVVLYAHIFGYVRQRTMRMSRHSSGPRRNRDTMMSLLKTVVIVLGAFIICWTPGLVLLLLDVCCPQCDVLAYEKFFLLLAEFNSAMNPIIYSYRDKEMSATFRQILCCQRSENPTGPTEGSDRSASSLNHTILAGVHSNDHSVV

Row | Compound | IC50 (Human LPA3) [nM] | IC50 [1] [nM] | IC50 (Human LPA1) [nM]
1 | Cc1noc(-c2ccc(-c3ccc(C4(C(=O)O)CC4)cc3)cc2)c1NC(=O)OCC1CC1 [Compound 7, 1-[4′-(4-Cyclopropylmethoxycarbonylamino-3-methyl-isoxazol-5-yl)-biphenyl-4-yl]-cyclopropanecarboxylic acid] | > 10000 | – | < 300
2 | Cc1noc(-c2ccc(-c3ccc(C4(C(=O)O)CC4)cc3)cc2)c1NC(=O)O[C@H](C)c1ccccc1C(F)(F)F [Compound 9, 1-(4′-{3-Methyl-4-[(R)-1-(2-trifluoromethyl-phenyl)-ethoxycarbonylamino]-isoxazol-5-yl}-biphenyl-4-yl)-cyclopropanecarboxylic acid] | 1000 to 10000 | – | < 300
3 | Cc1noc(-c2ccc(-c3ccc(C4(C(=O)O)CC4)cc3)cc2)c1NC(=O)OC(C)c1cccc(C#N)c1 (centres unmarked) [Compound 15, 1-(4′-{4-[1-(3-Cyano-phenyl)-ethoxycarbonylamino]-3-methyl-isoxazol-5-yl}-biphenyl-4-yl)-cyclopropanecarboxylic acid] | 1000 to 10000 | – | < 300
4 | COc1cccc([C@@H](C)OC(=O)Nc2c(C)noc2-c2ccc(-c3ccc(C4(C(=O)O)CC4)cc3)cc2)c1 [Compound 23, 1-(4′-{4-[(R)-1-(3-Methoxy-phenyl)-ethoxycarbonylamino]-3-methyl-isoxazol-5-yl}-biphenyl-4-yl)-cyclopropanecarboxylic acid] | 1000 to 10000 | – | < 300

Now from value to compound:

Row | IC50 (Human LPA3) [nM] | IC50 [1] [nM] | IC50 (Human LPA1) [nM] | Compound
5 | 1000 to 10000 | < 100 | < 300 | Cc1noc(-c2ccc(-c3ccc(C4(C(=O)NS(C)(=O)=O)CC4)cc3)cc2)c1NC(=O)O[C@H](C)c1ccccc1 [Compound 35, {5-[4′-(1-Methanesulfonylaminocarbonyl-cyclopropyl)-biphenyl-4-yl]-3-methyl-isoxazol-4-yl}-carbamic acid (R)-1-phenyl-ethyl ester]
6 | 1000 to 10000 | < 100 | < 300 | Cc1noc(-c2ccc(-c3ccc(C4(C(=O)NS(=O)(=O)c5ccccc5)CC4)cc3)cc2)c1NC(=O)O[C@H](C)c1ccccc1 [Compound 36, {5-[4′-(1-Benzenesulfonylaminocarbonyl-cyclopropyl)-biphenyl-4-yl]-3-methyl-isoxazol-4-yl}-carbamic acid (R)-1-phenyl-ethyl ester]
7 | 1000 to 10000 | < 100 | < 300 | Cc1noc(-c2ccc(-c3ccc(C4(c5nc(=O)o[nH]5)CC4)cc3)cc2)c1NC(=O)O[C@H](C)c1ccccc1 [Compound 38, (3-Methyl-5-{4′-[1-(5-oxo-2,5-dihydro-[1,2,4]oxadiazol-3-yl)-cyclopropyl]-biphenyl-4-yl}-isoxazol-4-yl)-carbamic acid (R)-1-phenyl-ethyl ester]
8 | 300 to 1000 | – | < 300 | COc1cc(-c2ccc(C3(C(=O)NS(C)(=O)=O)CC3)cc2)ccc1-c1onc(C)c1NC(=O)O[C@H](C)c1cccc(C(F)(F)F)c1 [Compound 41, {5-[4′-(1-Methanesulfonylaminocarbonyl-cyclopropyl)-3-methoxy-biphenyl-4-yl]-3-methyl-isoxazol-4-yl}-carbamic acid (R)-1-(3-trifluoromethyl-phenyl)-ethyl ester]
9 | 1000 to 10000 | – | < 300 | Cc1noc(-c2ccc(-c3ccc(C4(C(=O)O)CC4)cc3)cc2)c1NC(=O)OC(C)c1ccccc1 (racemic) [Compound 34, 1-{4′-[3-Methyl-4-(1-phenyl-ethoxycarbonylamino)-isoxazol-5-yl]-biphenyl-4-yl}-cyclopropanecarboxylic acid]
10 | 300 to 1000 | – | < 300 | Cc1noc(-c2ccc(-c3ccc(C4(C(=O)O)CC4)cc3)cc2)c1NC(=O)OC(C)c1cccc(Cl)c1 (centres unmarked) [Compound 26, 1-(4′-{4-[1-(3-Chloro-phenyl)-ethoxycarbonylamino]-3-methyl-isoxazol-5-yl}-biphenyl-4-yl)-cyclopropanecarboxylic acid]
